Data set [1] can be described thus: Water absorption (hygroscopicity) test under 80% relative humidity. The format is physicochemical. The note with it: room temperature, 37 days.
Data set [2] can be described thus: Weight loss measured by TGA. Format: physicochemical. The note with it: range of about 25° C. to about 200° C. The procedure: Form Z has a weight loss of about 0.1% by weight at the range of about 25° C. to about 200° C., as measured by TGA.
The conditions of data set [3]: cited from earlier work.

Take `CCCCCNC(=N)N/N=C/c1c[nH]c2ccc(OC)cc12.O=C(O)/C=C\C(=O)O` [Form Z, tegaserod maleate]: in data set [1], the “hygroscopicity (water absorption)” value is reported as “non hygroscopic”. Also, in data set [2], the “weight loss as measured by TGA” value is “about 0.1 % by weight”.

Regarding `CCCCCNC(=N)N/N=C/c1c[nH]c2ccc(OC)cc12.O=C(O)/C=C\C(=O)O` [Tegaserod maleate, 3-(5-methoxy-1H-indole-3-ylmethylene)-N-pentylcarbazimidamide hydrogen maleate], the solubility in ethanol entry in data set [3] (ethanol) was “slightly soluble”. In addition, in data set [3] (water), the solubility in water entry was “very slightly soluble”.

The record behind these values is patent US20070112057A1, “Polymorphic forms of tegaserod maleate” (priority 2005, published 2007).
